Assay results published in patent publication US20040147532A1, “Liquid conjugates of solid pharmaceuticals” (Pfizer Inc, priority 2002, published 2004).
Converted amounts (≈) assume the structure as drawn. Where a name gives a salt, the structure may show the parent alone.

Experiment: Solubility of ziprasidone from conjugates in phosphate buffered saline (HPLC)
Format: physicochemical
Conditions: PBS, continuous agitation; for Solubility of ziprasidone, Sample Conc., 20 min: time point 20 min; for Solubility of ziprasidone, Sample Conc., 7 days: time point 7 days
Description: For the solubility determination, all conjugate samples were placed in Eppendorf tubes with 1-ml aliquot of phosphate buffered saline (PBS), pH adjusted to 7.4. At selected time points (20 minutes, 1 hour, 6 hours, 24 hours, and 7 days), 200 µl of PBS exposed to each sample was withdrawn and replaced with fresh medium. The samples were continuously agitated for the duration of the study. To prepare HPLC samples, the 200-μl samples were filtered through 0.22-μm syringe, filter membrane, diluted as needed, and injected at appropriately adjusted volume to determine ziprasidone concentration in solution.

Row | Solubility of ziprasidone, Sample Conc., 20 min (pH 7.4) | Solubility of ziprasidone, Sample Conc., 6 hours (pH 7.4, time point 6 hours) | Solubility of ziprasidone, Sample Conc., 7 days (pH 7.4) | solubility at 24 h (phosphate buffered saline, pH 7.4, aqueous buffer, thermodynamic from solid, time point 24 hours, read-out: Solubility of ziprasidone, Sample Conc., 24 hours) | SMILES
1 | 0.01 µg/mL | 0.22 µg/mL | 0.01 µg/mL | 2 µg/mL (≈ 4.84 µM) | O=C1Cc2cc(CCN3CCN(c4nsc5ccccc45)CC3)c(Cl)cc2N1 [Ziprasidone Free Base, 5-[2-[4-(1,2-benzisothiazol-3-yl)-1-piperazinyl]ethyl]-6-chloro-1,3-dihydro-2H-indol-2-one]
2 | 1.46 µg/mL |  | 1.31 µg/mL |  | O=C1Cc2cc(CCN3CCN(c4nsc5ccccc45)CC3)c(Cl)cc2N1 [Ziprasidone Mesylate]
